Patent US20090306218A1, “Antimicrobial formulations” (priority 2006, published 2009)
In brackets after ≈: the same amount, converted by molar mass. Like-named read-outs stand apart in the source and are kept apart here.

How the values were obtained:
[1] = tested on: Propionibacterium acnes NCTC 737; assay: Minimum inhibitory concentration (MIC) assay, liquid medium; type: cell-based; conditions: for MIC: P. acnes NCTC 737
Experimental: (§1) (a) Minimum Inhibitory Concentration (MIC) Assay
(§2) This is a standard international method for quantitatively assessing the antimicrobial activity of a compound in a liquid medium. The method used a sterile 96-well microtitre plate, capable of holding about 200 μl of liquid per well. […] The culture medium was as described above.
(§3) After incubation, the microtitre plate was examined visually (with the aid of a light box) for cloudiness in each well, which would indicate microbial growth. The MIC value was recorded as the lowest concentration of test compound required to inhibit microbial growth, i.e., the lowest concentration for which the liquid in the well remained clear.
(§4) The assays were conducted in duplicate (minimum) and included both negative (culture medium with no micro-organisms) and positive (culture medium plus diluting solvent plus micro-organism) controls.
(§5) MIC, MBC and DDA assays, as described above, were carried out using the test compound t-butyl-p-hydroquinone (TBHQ) and a range of bismuth salts (all ex-Sigma Aldrich, UK).

[2] = tested on: Propionibacterium acnes NCTC 737; assay: Minimum bactericidal concentration (MBC) assay; type: cell-based; conditions: P. acnes NCTC 737
Experimental: (§6) (b) Minimum Bactericidal Concentration (MBC) Assay
as §5

[3] = tested on: Propionibacterium acnes NCTC 737; assay: Disc diffusion assay (DDA); type: cell-based; conditions: P. acnes NCTC 737, 200 μg per disc
Experimental: (d) Disc Diffusion Assay (DDA)
This is an internationally recognised standard method for qualitatively assessing the antimicrobial activity of a compound.
A sterile paper disc was impregnated with a sample of the test compound in a suitable solvent and 30 minutes allowed for the solvents to evaporate (where possible). The disc was then placed on an agar plate onto which the test micro-organism had been inoculated. The plate was then incubated under the conditions described above, following which it was examined visually for signs of microbial growth. […] The diameter of this zone of “inhibition” was measured using a ProtoCOL™ automated zone sizer (Synbiosis, Cambridge, UK).
The TBHQ was dissolved in ethanol and the bismuth salts in DMSO.
All the (S)DDA experiments were conducted in triplicate.
DDA assays, as described above, were carried out using each of the test compounds individually. The quinone/bismuth salt combinations were then subjected to the SDDA assay described above.
The quinones and bismuth salts were all dissolved in DMSO.

[4] = tested on: P. acnes PRP panel strains; type: cell-based, Propionibacterium acnes; conditions: for MIC: liquid medium
[5] = tested on: P. granulosum panel strains; assay: MIC assay, liquid medium, panel of propionibacteria; type: cell-based, Propionibacterium granulosum
[6] = tested on: P. acnes PRP panel strains; type: cell-based, Propionibacterium acnes; conditions: 200 μg per disc
[7] = tested on: P. granulosum panel strains; assay: Disc diffusion assay (DDA), panel of propionibacteria; type: cell-based, Propionibacterium granulosum; conditions: 200 μg per disc
[8] = tested on: Por. gingivalis NCTC 11834; assay: MIC assay, liquid medium; type: cell-based, Porphyromonas gingivalis
Experimental: as §1, §2, §3, §4
(§7) MIC and MBC assays, as described above, were carried out using the test compounds t-butyl-p-hydroquinone (TBHQ) and bismuth subsalicylate (both ex-Sigma Aldrich). The TBHQ was dissolved in ethanol and the bismuth subsalicylate in DMSO. All the experiments were conducted in triplicate.

[9] = tested on: Por. gingivalis NCTC 11834; assay: MBC assay; type: cell-based, Porphyromonas gingivalis
Experimental: as §6, §7

[10] = tested on: P. acnes PRP panel strains; assay: MBC assay, panel of propionibacteria
Experimental: (§8) This assay, normally carried out after an MIC assay, determines the minimum concentration of a compound that is lethal to the micro-organism being tested.
(§9) These samples were then individually sub-cultured on antibiotic-free agar medium, under the incubation conditions described above. Following incubation they were examined visually for microbial growth.

[11] = tested on: P. granulosum panel strains; assay: MBC assay, panel of propionibacteria
Experimental: as §8, §9

[12] = P. acnes PRP-002, resistance phenotype Tet/MLS
[13] = P. acnes PRP-003, resistance phenotype Tet
[14] = P. acnes PRP-004, resistance phenotype Tet
[15] = P. acnes PRP-007, resistance phenotype Clin
[16] = P. acnes PRP-008, resistance phenotype Clin
[17] = P. acnes PRP-010, resistance phenotype MLSK
[18] = P. acnes PRP-017, resistance phenotype MLS
[19] = P. acnes PRP-023, resistance phenotype MLSK
[20] = P. acnes PRP-026, resistance phenotype MLS
[21] = P. acnes PRP-039, resistance phenotype Tet/MLS
[22] = P. acnes PRP-046, resistance phenotype None
[23] = P. acnes PRP-053, resistance phenotype Tet/MLS
[24] = P. acnes PRP-059, resistance phenotype MLS
[25] = P. acnes PRP-068, resistance phenotype Ery
[26] = P. acnes PRP-101, resistance phenotype Tet/MLS
[27] = P. acnes PRP-102, resistance phenotype Tet/MLS
[28] = P. granulosum NCTC 11865, resistance phenotype None
[29] = P. granulosum PRP-005, resistance phenotype MLSK
[30] = P. granulosum PRP-006, resistance phenotype MLS
[31] = P. granulosum PRP-019, resistance phenotype MLSK
[32] = P. granulosum PRP-021, resistance phenotype MLS
[33] = P. granulosum PRP-043, resistance phenotype MLS
[34] = P. granulosum PRP-044, resistance phenotype MLS
[35] = P. granulosum PRP-055, resistance phenotype None

## CC(C)(C)c1cc(O)ccc1O [TBHQ, t-butyl-p-hydroquinone]
[1]; Table 1
  MIC: 7.8 µg/mL (≈ 46.9 µM)
[1]; separate experiment, Table 3
  MIC: 7.8 µg/mL (≈ 46.9 µM)
[1]; compound alone, data of Tables 1 and 2
  activity against P. acnes NCTC 737 (in words): active
[2]; Table 1
  MBC: 7.8 µg/mL (≈ 46.9 µM)
  MIC/MBC ratio: 1
[2]; separate experiment, Table 3
  MBC: 7.8 µg/mL (≈ 46.9 µM)
  MIC/MBC ratio: 1
[3]; Table 2
  DDA (zone of inhibition diameter): 11.04 mm
[3]; separate experiment, Table 4
  DDA (zone of inhibition diameter): 14.68 mm
[4]; [12]
  MIC: 3.9 µg/mL (≈ 23.5 µM)
[4]; [13]
  MIC: 7.8 µg/mL (≈ 46.9 µM)
[4]; [14]
  MIC: 1.95 µg/mL (≈ 11.7 µM)
[4]; [15]
  MIC: 3.9 µg/mL (≈ 23.5 µM)
[4]; [16]
  MIC: 3.9 µg/mL (≈ 23.5 µM)
[4]; [17]
  MIC: 3.9 µg/mL (≈ 23.5 µM)
[4]; [18]
  MIC: 3.9 µg/mL (≈ 23.5 µM)
[4]; [19]
  MIC: 3.9 µg/mL (≈ 23.5 µM)
[4]; [20]
  MIC: 3.9 µg/mL (≈ 23.5 µM)
[4]; [21]
  MIC: 3.9 µg/mL (≈ 23.5 µM)
[4]; [22]
  MIC: 1.95 µg/mL (≈ 11.7 µM)
[4]; [23]
  MIC: 3.9 µg/mL (≈ 23.5 µM)
[4]; [24]
  MIC: 3.9 µg/mL (≈ 23.5 µM)
[4]; [25]
  MIC: 3.9 µg/mL (≈ 23.5 µM)
[4]; [26]
  MIC: 3.9 µg/mL (≈ 23.5 µM)
[4]; [27]
  MIC: 7.8 µg/mL (≈ 46.9 µM)
[4]; P. acnes and P. granulosum strains of Tables 6 and 7
  activity against the panel of propionibacteria (in words): active against all of the propionibacterial strains tested
[5]; [28]
  MIC: 3.9 µg/mL (≈ 23.5 µM)
[5]; [29]
  MIC: 62.5 µg/mL (≈ 376 µM)
[5]; [30]
  MIC: 7.8 µg/mL (≈ 46.9 µM)
[5]; [31]
  MIC: 31.25 µg/mL (≈ 188 µM)
[5]; [32]
  MIC: 15.6 µg/mL (≈ 93.9 µM)
[5]; [33]
  MIC: 15.6 µg/mL (≈ 93.9 µM)
[5]; [34]
  MIC: 15.6 µg/mL (≈ 93.9 µM)
[5]; [35]
  MIC: 3.9 µg/mL (≈ 23.5 µM)
[6]; P. acnes PRP-002
  DDA (zone diameter): 18.12 mm
[6]; P. acnes PRP-003
  DDA (zone diameter): 18.12 mm
[6]; P. acnes PRP-004
  DDA (zone diameter): 19.88 mm
[6]; P. acnes PRP-007
  DDA (zone diameter): 12.74 mm
[6]; P. acnes PRP-008
  DDA (zone diameter): 17.92 mm
[6]; P. acnes PRP-010
  DDA (zone diameter): 18.54 mm
[6]; P. acnes PRP-017
  DDA (zone diameter): 13.98 mm
[6]; P. acnes PRP-023
  DDA (zone diameter): 18.54 mm
[6]; P. acnes PRP-026
  DDA (zone diameter): 13.98 mm
[6]; P. acnes PRP-039
  DDA (zone diameter): 17.71 mm
[6]; P. acnes PRP-046
  DDA (zone diameter): 20.71 mm
[6]; P. acnes PRP-053
  DDA (zone diameter): 17.09 mm
[6]; P. acnes PRP-059
  DDA (zone diameter): 19.88 mm
[6]; P. acnes PRP-068
  DDA (zone diameter): 16.78 mm
[6]; P. acnes PRP-101
  DDA (zone diameter): 12.84 mm
[6]; P. acnes PRP-102
  DDA (zone diameter): 14.50 mm
[7]; P. granulosum NCTC 11865
  DDA (zone diameter): 11.50 mm
[7]; P. granulosum PRP-005
  DDA (zone diameter): 10.67 mm
[7]; P. granulosum PRP-006
  DDA (zone diameter): 9.42 mm
[7]; P. granulosum PRP-019
  DDA (zone diameter): 10.36 mm
[7]; P. granulosum PRP-021
  DDA (zone diameter): 0.00 mm
[7]; P. granulosum PRP-043
  DDA (zone diameter): 0.00 mm
[7]; P. granulosum PRP-044
  DDA (zone diameter): 0.00 mm
[7]; P. granulosum PRP-055
  DDA (zone diameter): 18.02 mm
[8]; Por. gingivalis NCTC 11834
  MIC: <0.49 µg/mL
[8]; compound alone, data of Table 8
  activity against Por. gingivalis NCTC 11834 (in words): active
[9]
  MBC: 0.49 µg/mL (≈ 2.95 µM)
  MIC/MBC ratio: <1
[10]; [12]
  MBC: 7.8 µg/mL (≈ 46.9 µM)
[10]; [13]
  MBC: 7.8 µg/mL (≈ 46.9 µM)
[10]; [14]
  MBC: 7.8 µg/mL (≈ 46.9 µM)
[10]; [15]
  MBC: 7.8 µg/mL (≈ 46.9 µM)
[10]; [16]
  MBC: 7.8 µg/mL (≈ 46.9 µM)
[10]; [17]
  MBC: 15.6 µg/mL (≈ 93.9 µM)
[10]; [18]
  MBC: 7.8 µg/mL (≈ 46.9 µM)
[10]; [19]
  MBC: 7.8 µg/mL (≈ 46.9 µM)
[10]; [20]
  MBC: 7.8 µg/mL (≈ 46.9 µM)
[10]; [21]
  MBC: 7.8 µg/mL (≈ 46.9 µM)
[10]; [22]
  MBC: 7.8 µg/mL (≈ 46.9 µM)
[10]; [23]
  MBC: 7.8 µg/mL (≈ 46.9 µM)
[10]; [24]
  MBC: 7.8 µg/mL (≈ 46.9 µM)
[10]; [25]
  MBC: 7.8 µg/mL (≈ 46.9 µM)
[10]; [26]
  MBC: 7.8 µg/mL (≈ 46.9 µM)
[10]; [27]
  MBC: 15.6 µg/mL (≈ 93.9 µM)
[11]; [28]
  MBC: 7.8 µg/mL (≈ 46.9 µM)
[11]; [29]
  MBC: 62.5 µg/mL (≈ 376 µM)
[11]; [30]
  MBC: 7.8 µg/mL (≈ 46.9 µM)
[11]; [31]
  MBC: 31.25 µg/mL (≈ 188 µM)
[11]; [32]
  MBC: 31.25 µg/mL (≈ 188 µM)
[11]; [33]
  MBC: 15.6 µg/mL (≈ 93.9 µM)
[11]; [34]
  MBC: 31.25 µg/mL (≈ 188 µM)
[11]; [35]
  MBC: 7.8 µg/mL (≈ 46.9 µM)
